Patent US6967205B1, “Compounds with antibacterial and antiparasitic properties” (New Pharma Research Sweden AB, priority 1999, dated 2005)
≈ marks a conversion by molar mass, not a printed value.

Key:
Experiment in all cases: M.I.C. by broth dilution method (NCCLS 1988), gram-positive bacteria
Assay type in all cases: cell-based
[1] = test system: Bacillus cereus; settings: in vitro broth dilution
Experimental: (§1) The antibacterial activity of the present compounds was investigated by in vitro evaluation of their M.I.C. (Minimum Inhibitory Concentration) values. The evaluation was conducted in complete accordance with the “Broth dilution method”, as outlined by the U.S. National Committee for Clinical Laboratory Standards “NCCLS 1988”.
(§2) Solutions of the present compounds were prepared by dissolving 0.01 g of a test compound in either 10% KOH (aq) or a 10% KOH/DMF mixture, after which sterile, distilled H2O was added up to a total volume of 10 ml, thereby yielding a test compound concentration of 1 000 μg/ml.
(§3) In this evaluation, the antibacterial activity of the present compounds and enrofloxacin as reference compound was tested against seven strains of gram-positive bacteria, namely Bacillus subtilus (ATCC 6633), Bacillus cereus, Streptococcus faecium, Micrococcus Luteus (ATCC 9341), Staph. aureus (ATCC 29737), Staph. epidermidis (ATCC 12228) and Staphylococcus (ATCC 6538).

[2] = test system: Bacillus subtilus (ATCC 6633); settings: ATCC6633, in vitro broth dilution
Experimental: as §1, §2, §3

[3] = test system: Micrococcus Luteus (ATCC 9341); settings: ATCC9341, in vitro broth dilution, read-out: M.I.C. values Microc. Luteus
Experimental: as §1, §2, §3

[4] = test system: Staph. aureus (ATCC 29737); settings: Staphylococcus aureus, ATCC29737, in vitro broth dilution
Experimental: as §1, §2, §3

[5] = test system: Staph. epidermidis (ATCC 12228); settings: Staphylococcus epidermidis, ATCC12228, in vitro broth dilution
Experimental: as §1, §2, §3

[6] = test system: Staphylococcus (ATCC 6538); settings: ATCC6538, in vitro broth dilution, read-out: M.I.C. values Staph. (ATCC 6538)
Experimental: as §1, §2, §3

[7] = test system: Streptococcus faecium; settings: Enterococcus faecium, in vitro broth dilution, read-out: M.I.C. values Streptoc. faecium
Experimental: as §1, §2, §3

SMILES	MIC [1]	MIC [2]	MIC [3]	MIC [4]	MIC [5]	MIC [6]	MIC [7]
O=C(O)c1cn(C2CC2)c2cc(N(CCN3CCCCC3)C(=O)c3cccs3)c(F)cc2c1=O [JA 128, 1-cyclopropyl-6-fluoro-4-oxo-7-[[2-(1-piperidinyl)ethyl]-(2-thienylcarbonyl)amino]-1,4-dihydro-3-quinolinecarboxylic acid]	0.06 µg/mL (≈ 0.124 µM)	0.12 µg/mL (≈ 0.248 µM)	2 µg/mL (≈ 4.14 µM)	0.12 µg/mL (≈ 0.248 µM)	0.06 µg/mL (≈ 0.124 µM)	0.12 µg/mL (≈ 0.248 µM)	1 µg/mL (≈ 2.07 µM)
O=C(O)c1cn(C2CC2)c2cc(N(CC3CCCO3)C(=O)c3cccs3)c(F)cc2c1=O (stereo not shown) [JA 140, 1-cyclopropyl-6-fluoro-4-oxo-7-[(tetrahydro-2-furanylmethyl)(2-thienylcarbonyl)amino]-1,4-dihydro-3-quinolinecarboxylic acid]	0.06 µg/mL (≈ 0.131 µM)	0.06 µg/mL (≈ 0.131 µM)	1 µg/mL (≈ 2.19 µM)	0.12 µg/mL (≈ 0.263 µM)	0.12 µg/mL (≈ 0.263 µM)	0.06 µg/mL (≈ 0.131 µM)	0.5 µg/mL (≈ 1.1 µM)
Cc1ccc(S(=O)(=O)N2CCN(c3cc4c(cc3F)c(=O)c(C(=O)O)cn4C3CC3)CC2)cc1 [JA 2, 1-cyclopropyl-6-fluoro-7-{4-[(4-methylphenyl)sulfonyl]-1-piperazinyl}-4-oxo-1,4-dihydro-3-quinolinecarboxylic acid]	0.06 µg/mL (≈ 0.124 µM)	0.12 µg/mL (≈ 0.247 µM)	0.5 µg/mL (≈ 1.03 µM)	0.12 µg/mL (≈ 0.247 µM)	0.06 µg/mL (≈ 0.124 µM)	0.03 µg/mL (≈ 0.0618 µM)	0.5 µg/mL (≈ 1.03 µM)
O=C(O)c1cn(C2CC2)c2cc(NCCN3CCCCC3)c(F)cc2c1=O [JA 76, 1-cyclopropyl-6-fluoro-4-oxo-7-{[2-(1-piperidinyl)ethyl]-amino}-1,4-dihydro-3-quinolinecarboxylic acid]	0.12 µg/mL (≈ 0.321 µM)	0.12 µg/mL (≈ 0.321 µM)	2 µg/mL (≈ 5.36 µM)	0.12 µg/mL (≈ 0.321 µM)	0.12 µg/mL (≈ 0.321 µM)	0.06 µg/mL (≈ 0.161 µM)	1 µg/mL (≈ 2.68 µM)
O=C(O)c1cn(C2CC2)c2cc(N(CCc3ccccn3)CC3CCCO3)c(F)cc2c1=O (stereo not shown) [JA 146, 1-cyclopropyl-6-fluoro-4-oxo-7-[[2-(2-pyridinyl)ethyl](tetrahydro-2-furanylmethyl)amino]-1,4-dihydro-3-quinolinecarboxylic acid]	0.12 µg/mL (≈ 0.266 µM)	0.12 µg/mL (≈ 0.266 µM)	2 µg/mL (≈ 4.43 µM)	0.12 µg/mL (≈ 0.266 µM)	0.12 µg/mL (≈ 0.266 µM)	0.12 µg/mL (≈ 0.266 µM)	1 µg/mL (≈ 2.21 µM)
O=C(O)c1cn(C2CC2)c2cc(N3CCN(S(=O)(=O)Cc4ccccc4)CC3)c(F)cc2c1=O [JA 9, 7-[4-(benzylsulfonyl)-1-piperazinyl]-1-cyclopropyl-6-fluoro-4-oxo-1,4-dihydro-3-quinolinecarboxylic acid]	0.25 µg/mL (≈ 0.515 µM)	0.25 µg/mL (≈ 0.515 µM)	1 µg/mL (≈ 2.06 µM)	≥ 0.12 µg/mL	0.12 µg/mL (≈ 0.247 µM)	0.06 µg/mL (≈ 0.124 µM)	1 µg/mL (≈ 2.06 µM)
O=C(O)c1cn(C2CC2)c2cc(N(CC3CCCO3)S(=O)(=O)C(F)(F)F)c(F)cc2c1=O (stereo not shown) [JA 138, 1-cyclopropyl-6-fluoro-4-oxo-7-{(tetrahydro-2-furanylmethyl)[(trifluoromethyl)sulfonyl]amino}-1,4-dihydro-3-quinolinecarboxylic acid]	0.06 µg/mL (≈ 0.125 µM)	0.12 µg/mL (≈ 0.251 µM)	2 µg/mL (≈ 4.18 µM)	0.25 µg/mL (≈ 0.523 µM)	0.12 µg/mL (≈ 0.251 µM)	0.12 µg/mL (≈ 0.251 µM)	1 µg/mL (≈ 2.09 µM)
O=C(O)c1cn(C2CC2)c2cc(N(CC3CCCO3)c3cccc(Cl)n3)c(F)cc2c1=O (stereo not shown) [JA 143, 7-[(6-chloro-2-pyridinyl)(tetrahydro-2-furanylmethyl)amino]-1-cyclopropyl-6-fluoro-4-oxo-1,4-dihydro-3-quinolinecarboxylic acid]	0.12 µg/mL (≈ 0.262 µM)	0.12 µg/mL (≈ 0.262 µM)	> 2 µg/mL	0.25 µg/mL (≈ 0.546 µM)	0.12 µg/mL (≈ 0.262 µM)	0.12 µg/mL (≈ 0.262 µM)	1 µg/mL (≈ 2.18 µM)
COc1ccc(S(=O)(=O)N(CC2CCCO2)c2cc3c(cc2F)c(=O)c(C(=O)O)cn3C2CC2)cc1 (stereo not shown) [JA 135, 1-cyclopropyl-6-fluoro-7-[[(4-methoxyphenyl)sulfonyl](tetrahydro-2-furanylmethyl)amino]-4-oxo-1,4-dihydro-3-quinolinecarboxylic acid]	0.06 µg/mL (≈ 0.116 µM)	0.12 µg/mL (≈ 0.232 µM)	2 µg/mL (≈ 3.87 µM)	0.12 µg/mL (≈ 0.232 µM)	0.12 µg/mL (≈ 0.232 µM)	0.12 µg/mL (≈ 0.232 µM)	0.5 µg/mL (≈ 0.968 µM)
O=C(O)c1cn(C2CC2)c2cc(N(CC3CCCO3)c3cncc(Cl)n3)c(F)cc2c1=O (stereo not shown) [JA 141, 7-[(6-chloro-2-pyrazinyl)(tetrahydro-2-furanylmethyl)amino]-1-cyclopropyl-6-fluoro-4-oxo-1,4-dihydro-3-quinolinecarboxylic acid]	0.12 µg/mL (≈ 0.262 µM)	0.12 µg/mL (≈ 0.262 µM)	2 µg/mL (≈ 4.36 µM)	0.25 µg/mL (≈ 0.545 µM)	0.12 µg/mL (≈ 0.262 µM)	0.12 µg/mL (≈ 0.262 µM)	1 µg/mL (≈ 2.18 µM)
COCC(C)N(c1cc2c(cc1F)c(=O)c(C(=O)O)cn2C1CC1)S(=O)(=O)c1ccc([N+](=O)[O-])cc1 (stereo not shown) [JA 149, 1-cyclopropyl-6-fluoro-7-{(2-methoxy-1-methylethyl)[(4-nitrophenyl)sulfonyl]amino}-4-oxo-1,4-dihydro-3-quinolinecarboxylic acid]	0.12 µg/mL (≈ 0.231 µM)	0.12 µg/mL (≈ 0.231 µM)	2 µg/mL (≈ 3.85 µM)	0.12 µg/mL (≈ 0.231 µM)	0.12 µg/mL (≈ 0.231 µM)	0.12 µg/mL (≈ 0.231 µM)	2 µg/mL (≈ 3.85 µM)
O=C(O)c1cn(C2CC2)c2cc(N(Cc3ccco3)C(=O)c3cccs3)c(F)cc2c1=O [JA 124, 1-cyclopropyl-6-fluoro-7[(2-furylmethyl)(2-thienylcarbonyl)amino]-4-oxo-1,4-dihydro-3-quinolinecarboxylic acid]	0.12 µg/mL (≈ 0.265 µM)	0.12 µg/mL (≈ 0.265 µM)	2 µg/mL (≈ 4.42 µM)	0.12 µg/mL (≈ 0.265 µM)	0.12 µg/mL (≈ 0.265 µM)	0.12 µg/mL (≈ 0.265 µM)	1 µg/mL (≈ 2.21 µM)
CS(=O)(=O)N1CCN(c2cc3c(cc2F)c(=O)c(C(=O)O)cn3C2CC2)CC1 [JA 10, 1-cyclopropyl-6-fluoro-7-[4-(methylsulfonyl)-1-piperazinyl]-4-oxo-1,4-dihydro-3-quinolinecarboxylic acid]	0.12 µg/mL (≈ 0.293 µM)	0.5 µg/mL (≈ 1.22 µM)	2 µg/mL (≈ 4.88 µM)	0.25 µg/mL (≈ 0.611 µM)	0.25 µg/mL (≈ 0.611 µM)	0.25 µg/mL (≈ 0.611 µM)	1 µg/mL (≈ 2.44 µM)
COCC(C)N(C(=O)CC(C)=O)c1cc2c(cc1F)c(=O)c(C(=O)O)cn2C1CC1 (stereo not shown) [JA 148, 7-[acetoacetyl(2-methoxy-1-methylethyl)amino]-1-cyclopropyl-6-fluoro-4-oxo-1,4-dihydro-3-quinolinecarboxylic acid]	0.06 µg/mL (≈ 0.143 µM)	0.12 µg/mL (≈ 0.287 µM)	2 µg/mL (≈ 4.78 µM)	0.12 µg/mL (≈ 0.287 µM)	0.12 µg/mL (≈ 0.287 µM)	0.12 µg/mL (≈ 0.287 µM)	1 µg/mL (≈ 2.39 µM)
O=C(O)c1cn(C2CC2)c2cc(N3CCN(c4cccc(Cl)c4S)CC3)c(F)cc2c1=O [JA 41, 7-[4-(3-chloro-2-sulfanylphenyl)-1-piperazinyl]-1-cyclopropyl-6-fluoro-4-oxo-1,4-dihydro-3-quinolinecarboxylic acid]	0.25 µg/mL (≈ 0.527 µM)	0.5 µg/mL (≈ 1.05 µM)	2 µg/mL (≈ 4.22 µM)	0.25 µg/mL (≈ 0.527 µM)	0.25 µg/mL (≈ 0.527 µM)	0.25 µg/mL (≈ 0.527 µM)	1 µg/mL (≈ 2.11 µM)
O=C(O)c1cn(C2CC2)c2cc(NC3CCC(C(=O)O)CC3)c(F)cc2c1=O (stereo not shown) [JA 69, 7-[(4-carboxycyclohexyl)amino]-1-cyclopropyl-6-fluoro-4-oxo-1,4-dihydro-3-quinolinecarboxylic acid]	0.06 µg/mL (≈ 0.154 µM)	0.12 µg/mL (≈ 0.309 µM)	2 µg/mL (≈ 5.15 µM)	0.12 µg/mL (≈ 0.309 µM)	0.12 µg/mL (≈ 0.309 µM)	0.12 µg/mL (≈ 0.309 µM)	2 µg/mL (≈ 5.15 µM)
O=C(O)c1cn(C2CC2)c2cc(N3CCN(c4cnccn4)CC3)c(F)cc2c1=O [JA 46, 1-cyclopropyl-6-fluoro-4-oxo-7-[4-(2-pyrazinyl)-1-piperazinyl]-1,4-dihydro-3-quinolinecarboxylic acid]	0.06 µg/mL (≈ 0.147 µM)	0.12 µg/mL (≈ 0.293 µM)	1 µg/mL (≈ 2.44 µM)	0.12 µg/mL (≈ 0.293 µM)	0.12 µg/mL (≈ 0.293 µM)	0.12 µg/mL (≈ 0.293 µM)	0.5 µg/mL (≈ 1.22 µM)
O=C(O)c1cn(C2CC2)c2cc(N3CCN(c4ccc(Br)cn4)CC3)c(F)cc2c1=O [JA 40, 7-[4-(5-bromo-2-pyridinyl)-1-piperazinyl]-1-cyclopropyl-6-fluoro-4-oxo-1,4-dihydro-3-quinolinecarboxylic acid]	0.06 µg/mL (≈ 0.123 µM)	0.12 µg/mL (≈ 0.246 µM)	2 µg/mL (≈ 4.1 µM)	0.25 µg/mL (≈ 0.513 µM)	0.12 µg/mL (≈ 0.246 µM)	0.06 µg/mL (≈ 0.123 µM)	1 µg/mL (≈ 2.05 µM)
O=C(O)c1cn(C2CC2)c2cc(N(CC3CCCO3)S(=O)(=O)CCc3ccccc3)c(F)cc2c1=O (stereo not shown) [JA 137, 1-cyclopropyl-6-fluoro-4-oxo-7-[(phenethylsulfonyl)(tetrahydro-2-furanylmethyl)amino]-1,4-dihydro-3-quinolinecarboxylic acid]	0.25 µg/mL (≈ 0.486 µM)	0.12 µg/mL (≈ 0.233 µM)	2 µg/mL (≈ 3.89 µM)	0.5 µg/mL (≈ 0.972 µM)	0.25 µg/mL (≈ 0.486 µM)	0.12 µg/mL (≈ 0.233 µM)	1 µg/mL (≈ 1.94 µM)
